Measurements reported in patent US8163795B2, “Chroman derivatives, medicaments and use in therapy” (Marshall Edwards, Inc., priority 2004, dated 2012).
Several values for one entry are separate records, joined by “and”; a condition that tells them apart may be missing. Equal entries are not always repeated. Where two headings read alike, the source gives them in different places.

Columns and labels:
4405 melanoma cell line = assay: HMC combination with paclitaxel (synergy); assay type: cell-based; details: for IC50: Table 10, single agent
Procedure: (§1) IC50 values were determined for each cell line. Cells were seeded in 96-well plates at an appropriate cell density as determined from growth kinetics analysis and cultured for 5 days in the absence and presence of the test compounds. Cell proliferation was assessed after the addition of 20 μl of 3-4,5 dimethylthiazol-2,5-diphenyl tetrazolium bromide (MTT, 2.5 mg/ml in PBS, Sigma) for 3-4 hrs at 37° C. according to manufacturer's instructions. IC50 values were calculated from semi-log plots of % of control proliferation on the y-axis against log dose on the x-axis.
(§2) 3-D model analysis of the cytotoxic interaction between drug A and drug B enables the representation of predicted inhibitory effect of two drugs in combination in 3 dimensions to reveal actual regions of synergy or antagonism. The 3D synergy plots are based on a theory of “Theretical Additivity” (TA) as outlined by Kanzawa et al (Int. J. Cancer 71, 311-319 (1997)). Theoretical Additivity was calculated from the cytotoxicities of drug A and drug B as monotherapies using the following formula which assumes the drugs are mutually exclusive inhibitors: […]
(§3) The TA is calculated for each combination of drug concentrations and subtracted from the observed experimental effect for each combination to give a measurement of synergisitic action.
HMC synergy with paclitaxel was assessed either in combination over 5 days exposure or in sequence (HMC→paclitaxel) against the 4405 melanoma cell line. It was difficult to assess for synergisitic toxicity using a change in IC50 as a measure of synergy due to HMC toxicity as monotherapy (Table 10). […] Evidence of synergy using the HMC-paclitaxel combination was further assessed using the HMC→paclitaxel sequence (24 hr exposure to each compound in sequence) against the melanoma cell line 4405. Using change in IC50 to assess for synergy it was noted that HMC at concentrations of 2 μM markedly chemosensitised the 4405 cells to paclitaxel by >1000 fold (Table 10). HMC-induced chemosensitisation of […] cells to paclitaxel was confirmed using 3D analysis of the data.

[1] = test system: Mel-RM melanoma cell line; assay: HMC combination with gemcitabine (synergy); assay type: cell-based; details: for IC50: Table 9, single agent
Procedure: as §1, §2, §3
HMC synergy with gemcitabine was assessed either in combination over 5 days exposure or in sequence (HMC→gemcitabine) against the Mel-RM melanoma cell line. It was difficult to assess for synergisitic toxicity using a change in IC50 as a measure of synergy due to HMC toxicity as monotherapy (Table 9). […] Evidence of synergy using the HMC-gemcitabine combination was further assessed using the HMC→gemcitabine sequence (24 hr exposure to each compound in sequence) against the melanoma cell line Mel-RM. Using change in IC50 to assess for synergy it was noted that HMC at concentrations of 2 and 1 μM markedly chemosensitised the Mel-RM cells to gemcitabine by >1000 fold. HMC-induced chemosensitisation of Mel-RM cells to gemcitabine was confirmed using 3D analysis of the data.

[2] = HMC and HHC pharmacokinetics, oral, human patients; assay type: in vivo; details: plasma
Procedure: Human patients were orally dosed with 200 mg of either HMC or HHC. For each challenged patient, blood was taken over a 6 hour period and the results averaged to characterise the plasma pharmacokinetics.

cancer cell lines = assay: Proliferation assays, statements over several cancer cell lines; assay type: cell-based; details: SKOV-3, PC3, MCF-7, MDA-MB-468, HTB-138, HPAC, large cell lung cancer
Procedure: as §1

[3] = Toxicity in HPAC tumour bearing mice (weight, histopathology, serum biochemistry); assay type: in vivo, Athymic nu/nu BALB/c mice
Description: Subconfluent (80%) flasks of HPAC cells were trypsinised, washed in Hanks balanced salt solution (Sigma), resuspended in dubellco's minimal essential medium (Sigma) and an equal volume of Matrigel™ (Becton Dickson) at a density of 3.7×10^7 cells per ml. Athymic nu/nu BALB/c mice were s.c. inoculated with 3.7×10^6 HPAC cells bi-laterally midway along the dorsal surface. For the HMC (n=3 per dosage regimen) and control groups (n=2), treatment commenced five days post inoculation to allow tumour formation. HMC was formulated 20% HPBCD and delivered i.p. daily for 15 days. The control group received equivalent (weight:weight) i.p. doses of 20% HPBCD. Tumour measurements commenced on day 5 post inoculation (10×10 mm^2) and were measured in 2 dimensions, length (a) and width (b), using calipers. Tumor weight (W) was calculated by the formula W=ab2/2, where a, is the longer of the 2 measurements (Odwyer et al., 1994). Tumour proliferation curves were analyzed with respect to maximal tumour inhibition (treated/control, TIC). On sacrifice, liver, kidney, femur, stomach and colon tissue were fixed in buffered formalin, embedded in paraffin, sections cut and stained with H&E. Stained sections were then submitted to Rothwell consulting for histopathology analysis. Serum biochemistry was conducted on bloods taken from control, vehicle control and HMC treatment groups. Serum analysis was conducted by Veterinary Clinical pathology (U. Syd).
Histopathological examination of haematoxylin and eosin-stained sections cut from formalin-fixed tissues from two series of experimental mice was made. The liver, kidney, stomach and colon were examined for evidence of toxic damage, the spleen and bone marrow for evidence of myelosuppression and the tumour for degree of necrosis. A score of 0-5 was allocated to each tumour specimen for the degree of necrosis present, a 0 score representing, no necrosis and a score of 5, total necrosis. The sections were scored ‘blind’ on two separate occasions and the final score given in the results is the mean of these two scores.
Alakalines phosphatase (ALP), alanine transferase (ALT) and creatine (Cre) were assessed in HMC treated vs control animals. ALP and Cre levels were similar to control and fell within normal ranges (for rat) however, ALT levels in vehicle control and HMC treated groups were much lower than no treatment control levels.

[4] = test system: MEL-RM melanoma cells (TRAIL sensitive); assay: Apoptosis incidence in melanoma cells; assay type: cell-based
[5] = 120 h, 5 days exposure, read-out: IC50, Combined (monotherapy)
[6] = 24 hr exposure, read-out: IC50, 24 hr (monotherapy)
[7] = human, po, humans dosed orally with 200 mg
[8] = individual HMC treated mice, 100 mg/kg, listed as HMC

With `COc1ccc(C2c3ccc(O)cc3OCC2c2ccc(O)cc2)cc1` (centres unmarked) [Compound 1, 3-(4-hydroxyphenyl)-4-(4-methoxyphenyl)chroman-7-ol] the “reduction in IC50 in the combination experiment vs paclitaxel monotherapy” value (4405 melanoma cell line; 5-day combination) was 30 fold, the IC50 (4405 melanoma cell line; [5]) was 1.26 µM and the “chemosensitisation of 4405 cells to paclitaxel (change in IC50)” value (4405 melanoma cell line; HMC 2 μM, HMC→paclitaxel sequence) was > 1000 fold. The “Change Factor (HMC first)” value (4405 melanoma cell line; Paclitaxel block, HMC 1 uM 24 hr then paclitaxel 24 hr) was 11.00, the “Change Factor (HMC first)” value (4405 melanoma cell line; Paclitaxel block, HMC 2 uM 24 hr then paclitaxel 24 hr) was 106633.75 and the “Change Factor (Combined)” value (4405 melanoma cell line; Paclitaxel block, with HMC 1 uM, 5-day combination) was 30.36. The “Change Factor (Combined)” value (4405 melanoma cell line; Paclitaxel block, with HMC 2 uM, 5-day combination) was “?HMC effect”, the IC50 (4405 melanoma cell line; [6]) was 55.5 µM and the “Change Factor (HMC first)” value (4405 melanoma cell line; upper block of Table 10, HMC 2 uM first, sequence) was −1.035. For the same molecule, the “Change Factor (Combined)” value (4405 melanoma cell line; upper block of Table 10, HMC 2 uM, 5-day combination) was 5964.400, the IC50 [1, 5] was 0.51 µM and the “Change Factor (HMC first)” value ([1]; Gemcitabine block, HMC 1 uM 24 hr then gemcitabine 24 hr) was >1000. For the same molecule, the “Change Factor (HMC first)” value ([1]; Gemcitabine block, HMC 2 uM 24 hr then gemcitabine 24 hr) was >100, the “chemosensitisation of Mel-RM cells to gemcitabine (change in IC50)” value ([1]; HMC 2 and 1 μM, HMC→gemcitabine sequence) was > 1000 fold and the IC50 [1, 6] was 27.8 µM. For the same molecule, the “Change Factor (HMC first)” value ([1]; upper block of Table 9, HMC 1 uM first, sequence) was >1000, the “Change Factor (HMC first)” value ([1]; upper block of Table 9, HMC 2 uM first, sequence) was >1000 and the Cmax [2, 7] was 513 ng/mL. The Tmax [2, 7] was 2.17 h, the t1/2 ([2]; humans dosed orally with 200 mg) was 3.99 h and the half-life ([2]; human patients, 200 mg oral, initial results) was 3.99 h. The “activity compared to DHE IC50 values” (cancer cell lines) was 5-10 fold, the “toxicity as determined by weight loss” value ([3]; 100 mg/kg daily for 15 days) was “no signs of toxicity” and the “toxicity to major organs by histopathology” value ([3]; 100 mg/kg to mice) was “not toxic to major organs”. The “ALP (serum)” value [3, 8] was 111 U/L and 100 U/L and 74 U/L, the “ALT (serum)” value [3, 8] was 482 U/L and 494 U/L and 505 U/L and the “Cre (serum)” value [3, 8] was 8 uM (2×) and 17 uM. For the same molecule, the “Urea (serum)” value [3, 8] was 8.11 mM and 7.79 mM and 7.27 mM, the “Percent Apoptosis” value ([4]; 24 hr exposure, 1 uM) was 0% and the “Percent Apoptosis” value ([4]; 24 hr exposure, 2 uM) was 8%. The “Percent Apoptosis” value ([4]; 24 hr exposure, 4 uM) was 25%, the “Percent Apoptosis” value ([4]; 24 hr exposure, 8 uM) was 39% and the “Percent Apoptosis” value ([4]; 24 hr exposure, 20 uM) was 38%. The “Percent Apoptosis” value ([4]; 48 hr exposure, 1 uM) was 1.5%, the “Percent Apoptosis” value ([4]; 48 hr exposure, 2 uM) was 8% and the “Percent Apoptosis” value ([4]; 48 hr exposure, 4 uM) was 22%. For the same molecule, the “Percent Apoptosis” value ([4]; 48 hr exposure, 8 uM) was 38% and the “Percent Apoptosis” value ([4]; 48 hr exposure, 20 uM) was 30%.
